Laboratory results as given in patent US20240109917A1 (ACTELION PHARMACEUTICALS LTD, priority 2020, published 2024).
Where two headings read alike, the source gives them in different places.

Tests used:
[1] = target: Tb-labeled inactive PDGFRβ (Homo sapiens (Human), UniProt P09619); experiment: PDGFRβ LanthaScreen Assay; type: binding; conditions: read-out: PDGFR Lantha IC50
[2] = target: PDGFRβ (Rattus norvegicus (Rat), UniProt Q05030); experiment: PDGFRβ Cellular Assay (PDGFRb P-Y751 HTRF in A10 cells stimulated with PDGF-BB); type: cell-based
Outline: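 Rat A10 cells, plated overnight, were treated with compound for 3 hours, then stimulated with PDGF-BB (working stock 100 ng/mL in 10% FBS medium). After lysis, PDGFRβ P-Y751 was detected by HTRF.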

[3] = target: VEGFR2, unphosphorylated (Homo sapiens (Human), UniProt P35968); experiment: VEGFR ADP GLO Assay; type: biochemical
VEGFR2, unphosphorylated, sequence (P35968 20-1356): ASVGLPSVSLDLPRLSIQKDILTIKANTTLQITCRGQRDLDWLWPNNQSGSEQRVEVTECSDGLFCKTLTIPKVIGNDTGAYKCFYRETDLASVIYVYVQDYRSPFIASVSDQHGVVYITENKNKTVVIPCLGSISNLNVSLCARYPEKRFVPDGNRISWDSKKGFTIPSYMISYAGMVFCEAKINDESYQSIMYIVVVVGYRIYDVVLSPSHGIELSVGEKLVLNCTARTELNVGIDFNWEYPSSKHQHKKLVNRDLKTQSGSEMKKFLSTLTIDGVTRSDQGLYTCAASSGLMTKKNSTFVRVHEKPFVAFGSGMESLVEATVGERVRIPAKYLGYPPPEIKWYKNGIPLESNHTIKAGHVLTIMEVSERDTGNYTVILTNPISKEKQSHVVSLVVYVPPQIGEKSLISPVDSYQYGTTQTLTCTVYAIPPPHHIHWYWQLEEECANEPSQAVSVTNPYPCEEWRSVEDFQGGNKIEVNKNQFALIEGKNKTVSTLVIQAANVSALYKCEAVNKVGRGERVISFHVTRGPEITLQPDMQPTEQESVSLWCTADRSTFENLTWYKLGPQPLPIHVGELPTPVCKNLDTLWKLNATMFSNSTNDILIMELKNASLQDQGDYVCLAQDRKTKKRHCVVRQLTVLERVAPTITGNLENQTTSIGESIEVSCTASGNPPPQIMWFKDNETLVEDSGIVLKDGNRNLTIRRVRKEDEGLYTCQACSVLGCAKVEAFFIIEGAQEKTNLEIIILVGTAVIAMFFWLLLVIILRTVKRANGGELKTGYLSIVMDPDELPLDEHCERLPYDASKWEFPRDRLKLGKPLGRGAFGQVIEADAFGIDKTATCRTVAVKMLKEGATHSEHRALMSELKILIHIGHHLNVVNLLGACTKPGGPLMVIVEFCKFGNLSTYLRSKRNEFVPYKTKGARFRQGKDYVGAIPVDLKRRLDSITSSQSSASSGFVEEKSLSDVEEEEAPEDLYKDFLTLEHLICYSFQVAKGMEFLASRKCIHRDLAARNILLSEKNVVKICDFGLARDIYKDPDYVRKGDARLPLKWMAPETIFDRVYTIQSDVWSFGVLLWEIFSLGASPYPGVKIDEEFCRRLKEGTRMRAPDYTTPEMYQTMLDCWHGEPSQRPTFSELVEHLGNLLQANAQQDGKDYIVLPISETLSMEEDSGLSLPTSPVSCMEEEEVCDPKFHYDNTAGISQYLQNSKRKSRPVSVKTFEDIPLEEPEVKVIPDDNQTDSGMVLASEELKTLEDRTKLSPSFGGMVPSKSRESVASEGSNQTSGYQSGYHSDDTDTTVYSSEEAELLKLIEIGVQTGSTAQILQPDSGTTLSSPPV

PDGFRβ, sequence (Q05030 32-1097): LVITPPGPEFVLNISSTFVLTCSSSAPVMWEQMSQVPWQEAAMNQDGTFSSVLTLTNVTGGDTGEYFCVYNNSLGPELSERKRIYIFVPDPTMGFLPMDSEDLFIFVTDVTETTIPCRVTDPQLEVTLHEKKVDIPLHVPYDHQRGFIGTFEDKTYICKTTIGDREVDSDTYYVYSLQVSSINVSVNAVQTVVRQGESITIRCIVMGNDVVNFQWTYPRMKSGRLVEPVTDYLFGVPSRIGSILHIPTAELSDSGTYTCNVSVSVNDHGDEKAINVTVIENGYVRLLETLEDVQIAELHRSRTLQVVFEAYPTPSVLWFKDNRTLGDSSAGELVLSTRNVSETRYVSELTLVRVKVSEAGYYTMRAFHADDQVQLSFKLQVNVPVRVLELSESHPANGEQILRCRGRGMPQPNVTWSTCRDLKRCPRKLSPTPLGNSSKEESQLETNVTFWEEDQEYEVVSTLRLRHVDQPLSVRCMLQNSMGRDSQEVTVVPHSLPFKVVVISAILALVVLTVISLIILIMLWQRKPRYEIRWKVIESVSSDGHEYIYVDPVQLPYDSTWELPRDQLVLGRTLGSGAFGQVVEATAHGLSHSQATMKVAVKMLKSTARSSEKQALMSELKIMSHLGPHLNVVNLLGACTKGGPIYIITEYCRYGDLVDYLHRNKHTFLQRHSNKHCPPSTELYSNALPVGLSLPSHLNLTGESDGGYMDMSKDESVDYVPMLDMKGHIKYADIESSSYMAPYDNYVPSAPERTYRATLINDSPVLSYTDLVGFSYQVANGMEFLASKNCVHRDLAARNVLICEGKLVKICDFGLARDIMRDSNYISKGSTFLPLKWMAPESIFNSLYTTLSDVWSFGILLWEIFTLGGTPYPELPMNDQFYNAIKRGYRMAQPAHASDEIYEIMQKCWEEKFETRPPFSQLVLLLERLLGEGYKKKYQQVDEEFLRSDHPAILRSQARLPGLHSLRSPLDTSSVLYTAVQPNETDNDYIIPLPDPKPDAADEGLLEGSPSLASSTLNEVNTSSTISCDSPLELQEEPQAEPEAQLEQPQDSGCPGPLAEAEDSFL
Tb-labeled inactive PDGFRβ, sequence (P09619 33-1106): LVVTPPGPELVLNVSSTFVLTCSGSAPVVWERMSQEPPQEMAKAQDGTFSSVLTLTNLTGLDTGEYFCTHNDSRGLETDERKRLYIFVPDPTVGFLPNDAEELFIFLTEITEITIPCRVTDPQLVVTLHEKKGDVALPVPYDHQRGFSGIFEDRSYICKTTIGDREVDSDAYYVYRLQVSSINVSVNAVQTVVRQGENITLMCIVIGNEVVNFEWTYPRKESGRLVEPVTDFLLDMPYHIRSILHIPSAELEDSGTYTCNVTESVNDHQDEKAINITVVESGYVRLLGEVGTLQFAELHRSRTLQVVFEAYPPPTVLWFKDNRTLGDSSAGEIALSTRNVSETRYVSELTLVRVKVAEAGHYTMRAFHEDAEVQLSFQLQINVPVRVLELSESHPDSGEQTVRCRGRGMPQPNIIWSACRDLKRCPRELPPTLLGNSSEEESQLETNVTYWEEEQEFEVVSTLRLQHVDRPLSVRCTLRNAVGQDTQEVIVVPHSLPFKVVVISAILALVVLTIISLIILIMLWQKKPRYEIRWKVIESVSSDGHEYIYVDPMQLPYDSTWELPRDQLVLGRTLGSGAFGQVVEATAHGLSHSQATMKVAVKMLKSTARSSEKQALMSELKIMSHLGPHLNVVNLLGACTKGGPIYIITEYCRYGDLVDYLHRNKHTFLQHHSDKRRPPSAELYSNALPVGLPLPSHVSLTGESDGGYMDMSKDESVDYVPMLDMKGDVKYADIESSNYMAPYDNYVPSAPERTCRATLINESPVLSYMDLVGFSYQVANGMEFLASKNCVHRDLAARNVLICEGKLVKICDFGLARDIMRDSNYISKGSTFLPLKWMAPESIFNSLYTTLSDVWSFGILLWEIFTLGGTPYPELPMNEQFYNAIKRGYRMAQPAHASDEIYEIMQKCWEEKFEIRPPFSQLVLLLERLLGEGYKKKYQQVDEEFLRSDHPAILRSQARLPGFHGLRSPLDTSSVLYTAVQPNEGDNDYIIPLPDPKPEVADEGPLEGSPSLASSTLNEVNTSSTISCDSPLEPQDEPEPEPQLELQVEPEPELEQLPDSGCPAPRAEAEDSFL

Row | Compound | IC50 [1] [nM] | IC50 ([2]; read-out: PDGFR Cellular IC50) [nM] | IC50 [3] [µM] | IC50 ([2]; PDGFR Cellular IC50) [nM]
1 | Cc1ncc(NC(=O)CN2CCCC23CCC3)cc1NC(=O)c1cnn2cc(-c3cnc4n3CCOC4)sc12 [Example 418, N-(5-(2-(5-azaspiro[3.4]octan-5-yl)acetamido)-2-methylpyridin-3-yl)-2-(5,6-dihydro-8H-imidazo[2,1-c][1,4]oxazin-3-yl)pyrazolo[5,1-b]thiazole-7-carboxamide] | 2.9 | 6.5 | > 7.5 | –
2 | Cc1ncc(NC(=O)CN2CCC23CCC3)cc1NC(=O)c1cnn2cc(-c3cnn4c3COCC4)sc12 [Example 475, N-(5-(2-(1-azaspiro[3.3]heptan-1-yl)acetamido)-2-methylpyridin-3-yl)-2-(6,7-dihydro-4H-pyrazolo[5,1-c][1,4]oxazin-3-yl)pyrazolo[5,1-b]thiazole-7-carboxamide] | 1.4 | 2.3 | > 7.5 | –
3 | CCCNCC(=O)Nc1cnc(C)c(NC(=O)c2cnn3cc(-c4cnn5c4CCC5)sc23)c1 [Example 456, 2-(5,6-dihydro-4H-pyrrolo[1,2-b]pyrazol-3-yl)-N-(2-methyl-5-(2-(propylamino)acetamido)pyridin-3-yl)pyrazolo[5,1-b]thiazole-7-carboxamide] | 4.7 | 11 | > 7.5 | –
4 | Cc1ncc(C(=O)NCCN2CC(C)(C)C2)cc1NC(=O)c1cnn2cc(-c3cnn4c3CCC4)sc12 [Example 482, 2-(5,6-dihydro-4H-pyrrolo[1,2-b]pyrazol-3-yl)-N-(5-((2-(3,3-dimethylazetidin-1-yl)ethyl)carbamoyl)-2-methylpyridin-3-yl)pyrazolo[5,1-b]thiazole-7-carboxamide] | 1.6 | 28.6 | > 7.5 | –
5 | Cc1ncc(NC(=O)CN2CCC[C@H]2C)cc1NC(=O)c1cnn2cc(-c3nn(C)nc3C)sc12 [Example 443, (R)-2-(2,5-dimethyl-2H-1,2,3-triazol-4-yl)-N-(2-methyl-5-(2-(2-methylpyrrolidin-1-yl)acetamido)pyridin-3-yl)pyrazolo[5,1-b]thiazole-7-carboxamide] | 4.4 | 3.9 | > 7.5 | –
6 | Cc1ncc(NC(=O)CN2C[C@@H](C)O[C@H](C)C2)cc1NC(=O)c1cnn2cc(-c3cnn(C)c3C)sc12 (relative stereo) [Example 433, 2-(1,5-Dimethyl-1H-pyrazol-4-yl)-N-(5-(2-(trans-2,6-dimethylmorpholino)acetamido)-2-methylpyridin-3-yl)pyrazolo[5,1-b]thiazole-7-carboxamide] | 4 | 5.1 | > 7.5 | –
7 | Cc1ncc(NC(=O)CN2CC3(COC3)C2)cc1NC(=O)c1cnn2cc(-c3cnn4c3OCCC4)sc12 [Example 411, N-(5-(2-(2-oxa-6-azaspiro[3.3]heptan-6-yl)acetamido)-2-methylpyridin-3-yl)-2-(6,7-dihydro-5H-pyrazolo[5,1-b][1,3]oxazin-3-yl)pyrazolo[5,1-b]thiazole-7-carboxamide] | 6.6 | 114 | > 7.5 | –
8 | COCCn1cc(-c2cn3ncc(C(=O)Nc4cc(NC(=O)CCC5CCCN5C(C)C)cnc4C)c3s2)cn1 (stereo not drawn) [Example 463, N-(5-(3-(1-isopropylpyrrolidin-2-yl)propanamido)-2-methylpyridin-3-yl)-2-(1-(2-methoxyethyl)-1H-pyrazol-4-yl)pyrazolo[5,1-b]thiazole-7-carboxamide] | 11 | 782 | > 7.5 | –
9 | COCCn1cc(-c2cn3ncc(C(=O)Nc4cc(NC(=O)CCN5CCCC5(C)C)cnc4C)c3s2)cn1 [Example 41, N-(5-(3-(2,2-dimethylpyrrolidin-1-yl)propanamido)-2-methylpyridin-3-yl)-2-(1-(2-methoxyethyl)-1H-pyrazol-4-yl)pyrazolo[5,1-b]thiazole-7-carboxamide] | 4.7 | 10 | > 7.5 | –
10 | Cc1ncc(NC(=O)CNCC2CC2)cc1NC(=O)c1cnn2cc(-c3cnn4c3CCC4)sc12 [Example 454, N-(5-(2-((cyclopropylmethyl)amino)acetamido)-2-methylpyridin-3-yl)-2-(5,6-dihydro-4H-pyrrolo[1,2-b]pyrazol-3-yl)pyrazolo[5,1-b]thiazole-7-carboxamide] | 4.6 | 12.7 | > 7.5 | –
11 | Cc1ncc(NC(=O)CN2CC(C)(C)C2)cc1NC(=O)c1cnn2cc(-c3cnn(CCS(C)(=O)=O)c3)sc12 [Example 435, N-(5-(2-(3,3-Dimethylazetidin-1-yl)acetamido)-2-methylpyridin-3-yl)-2-(1-(2-(methylsulfonyl)ethyl)-1H-pyrazol-4-yl)pyrazolo[5,1-b]thiazole-7-carboxamide] | 6.8 | 139 | > 7.5 | –
12 | Cc1ncc(C(=O)NCCN2CC3CCC2CC3)cc1NC(=O)c1cnn2cc(-c3cnn4c3CCC4)sc12 [Example 480, N-(5-((2-(2-azabicyclo[2.2.2]octan-2-yl)ethyl)carbamoyl)-2-methylpyridin-3-yl)-2-(5,6-dihydro-4H-pyrrolo[1,2-b]pyrazol-3-yl)pyrazolo[5,1-b]thiazole-7-carboxamide] | 2.5 | 19.5 | > 7.5 | –
13 | Cc1ncc(NC(=O)CN2C[C@@H](C)O[C@H](C)C2)cc1NC(=O)c1cnn2cc(-c3cnn(CCS(C)(=O)=O)c3)sc12 (relative stereo) [Example 432, N-(5-(2-(trans-2,6-dimethylmorpholino)acetamido)-2-methylpyridin-3-yl)-2-(1-(2-(methylsulfonyl)ethyl)-1H-pyrazol-4-yl)pyrazolo[5,1-b]thiazole-7-carboxamide] | 9.2 | – | > 2.5 | 420
14 | Cc1ncc(C(=O)NCCN2CCCC23CCC3)cc1NC(=O)c1cnn2cc(-c3cnn4c3CCC4)sc12 [Example 461, N-(5-((2-(5-azaspiro[3.4]octan-5-yl)ethyl)carbamoyl)-2-methylpyridin-3-yl)-2-(5,6-dihydro-4H-pyrrolo[1,2-b]pyrazol-3-yl)pyrazolo[5,1-b]thiazole-7-carboxamide] | 0.8 | 2.1 | 3.35 | –
15 | Cc1ncc(NC(=O)CN2CCCCC2)cc1NC(=O)c1cnn2cc(-c3cnn4c3OCCC4)sc12 [Example 419, 2-(6,7-dihydro-5H-pyrazolo[5,1-b][1,3]oxazin-3-yl)-N-(2-methyl-5-(2-(piperidin-1-yl)acetamido)pyridin-3-yl)pyrazolo[5,1-b]thiazole-7-carboxamide] | 2.8 | 2.6 | > 7.5 | –
16 | COCCn1cc(-c2cn3ncc(C(=O)Nc4cc(NC(=O)C[C@@H]5CCCN5C(C)C)cnc4C)c3s2)cn1 [Example 451, (S)—N-(5-(2-(1-isopropylpyrrolidin-2-yl)acetamido)-2-methylpyridin-3-yl)-2-(1-(2-methoxyethyl)-1H-pyrazol-4-yl)pyrazolo[5,1-b]thiazole-7-carboxamide] | 16.1 | 67 | > 7.5 | –
17 | Cc1ncc(C(=O)NCCN2CCCC2(C)C)cc1NC(=O)c1cnn2cc(-c3cnn4c3CCC4)sc12 [Example 481, 2-(5,6-dihydro-4H-pyrrolo[1,2-b]pyrazol-3-yl)-N-(5-((2-(2,2-dimethylpyrrolidin-1-yl)ethyl)carbamoyl)-2-methylpyridin-3-yl)pyrazolo[5,1-b]thiazole-7-carboxamide] | 2 | 3.9 | > 7.5 | –
